Results as given in US11944623B2, “Modulators of Kv3 channels to treat pain” (Autifony Therapeutics Limited, priority 2015, dated 2024).

What was measured:
[1] = target: T1, human BK (hKCa1.1/β1) potassium channel (Homo sapiens, UniProt Q12791); assay: BK QPatch HT assay; type: cell-based; settings: 10 µM concentration (N=3)
T1 construct: expressed in transfected cells; host or cells: CHO cell line
Method: The effects of compounds on cloned human BK (hKCa1.1/β1) potassium channel (encoded by the human KCNMA1 and KCNMB1 genes) were examined in a CHO cell line using a QPatch HT® (Sophion Bioscience A/S, Denmark) assay. Onset and steady-state inhibition of hBK currents were measured using a voltage pulse pattern with a depolarizing test pulse (+100 mV amplitude, 200 ms duration) at 10 s intervals from a holding potential of −80 mV. The peak amplitude of the delayed outward current was measured for each test pulse. The compounds were evaluated at 10 μM in three cells for each compound, after a 3 minute compound application. The steady state inhibition produced by each compound was calculated.

human Kv3.3 channels = target: T2, human Kv3.3 channels (Homo sapiens, UniProt Q14003); assay: hKv3.3 IonWorks Quattro whole-cell current potentiation assay; type: cell-based; settings: for mean increase in human Kv3.3 peak current at 0 mV: 12.5 micromolar; for EC50: read-out: pEC50 for Kv3.3 (converted)
T2 construct: expressed in transfected cells
T2 sequence (Q14003 1-757): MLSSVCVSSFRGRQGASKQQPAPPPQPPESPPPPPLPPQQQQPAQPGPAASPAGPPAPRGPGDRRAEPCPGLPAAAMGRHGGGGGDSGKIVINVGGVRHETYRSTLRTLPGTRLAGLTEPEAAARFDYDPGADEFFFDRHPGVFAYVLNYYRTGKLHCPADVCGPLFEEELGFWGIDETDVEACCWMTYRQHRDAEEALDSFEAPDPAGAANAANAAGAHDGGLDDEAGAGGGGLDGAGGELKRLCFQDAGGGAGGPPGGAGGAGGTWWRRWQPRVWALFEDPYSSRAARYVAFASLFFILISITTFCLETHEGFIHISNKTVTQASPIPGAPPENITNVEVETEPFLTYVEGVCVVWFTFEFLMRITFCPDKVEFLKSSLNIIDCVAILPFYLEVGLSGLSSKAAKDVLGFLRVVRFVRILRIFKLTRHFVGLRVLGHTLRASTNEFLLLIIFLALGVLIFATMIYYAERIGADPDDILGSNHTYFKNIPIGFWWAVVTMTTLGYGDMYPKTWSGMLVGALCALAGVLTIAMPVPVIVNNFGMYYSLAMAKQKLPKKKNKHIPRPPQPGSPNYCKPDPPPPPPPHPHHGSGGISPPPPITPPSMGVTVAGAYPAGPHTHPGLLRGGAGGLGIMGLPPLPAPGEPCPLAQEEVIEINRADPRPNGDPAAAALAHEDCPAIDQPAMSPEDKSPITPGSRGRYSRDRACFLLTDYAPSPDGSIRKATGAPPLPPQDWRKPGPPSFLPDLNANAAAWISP
Source text: The ability of the compounds of the invention to modulate the voltage-gated potassium channel subtypes Kv3.3/Kv3.2/Kv3.1 may be determined using the following assay. Analogous methods may be used to investigate the ability of the compounds of the invention to modulate other channel subtypes.
To assess compound effects on human Kv3.3 channels (hKv3.3), a stable cell line expressing human Kv3.3 channels was created by transfecting Chinese Hamster Ovary (CHO)-K1 cells with a pBacMire_KCNC-3 vector. Cells were cultured in DMEM/F12 (Gibco) supplemented with 10% Foetal Bovine Serum (Gibco), 1× non-essential amino acids (Invitrogen) and geneticin (G418) 400 microg/mL. Cells were grown and maintained at 37° C. in a humidified environment containing 5% CO2 in air.
The day of the experiment, cells were removed from the incubator and the culture medium removed. Cells were washed with 5 ml of Dulbecco's PBS (DPBS) calcium and magnesium free and detached by the addition of 3 ml Versene (Invitrogen, Italy) followed by a brief incubation at 37° C. for 5 minutes. The flask was tapped to dislodge cells and 10 ml of DPBS containing calcium and magnesium was added to prepare a cell suspension. The cell suspension was then placed into a 15 ml centrifuge tube and centrifuged for 2 min at 1200 rpm. After centrifugation, the supernatant was removed and the cell pellet re-suspended in 4 ml of DPBS containing calcium and magnesium using a 5 ml pipette to break up the pellet. Cell suspension volume was then corrected to give a cell concentration for the assay of approximately 3 million cells per ml.
Experiments were conducted at room temperature using IonWorks Quattro™ planar array electrophysiology technology (Molecular Devices Corp.) with PatchPlate™ PPC. Stimulation protocols and data acquisition were carried out using a microcomputer (Dell Pentium 4). Planar electrode hole resistances (Rp) were determined by applying a 10 mV voltage step across each well. These measurements were performed before cell addition. After cell addition and seal formation, a seal test was performed by applying a voltage step from −80 mV to −70 mV for 160 ms. Following this, amphotericin-B solution was added to the intracellular face of the electrode to achieve intracellular access. Cells were held at −70 mV. Leak subtraction was conducted in all experiments by applying 50 ms hyperpolarizing (10 mV) prepulses to evoke leak currents followed by a 20 ms period at the holding potential before test pulses. For hKv3.2 and hKv3.1 assays, from the holding potential of −70 mV, a first test pulse to −15 mV was applied for 100 ms and following a further 100 ms at −70 mV, a second pulse to 40 mV was applied for 50 ms. Cells were then maintained for a further 100 ms at −100 mV and then a voltage ramp from −100 mV to 40 mV was applied over 200 ms. For hKv3.3 assays, from the holding potential of −70 mV, a first test pulse to 0 mV was applied for 500 ms and following a further 100 ms at −70 mV, a second pulse to 40 mV was applied for 200 ms. These longer test pulses were used to study inactivation of hKv3.3 channels.
Test pulses protocol may be performed in the absence (pre-read) and presence (post-read) of the test compound. Pre- and post-reads may be separated by the compound addition followed by a 3-minute incubation.
The intracellular solution contained the following (in mM): K-gluconate 100, KCl 54, MgCl2 3.2, HEPES 5, adjusted to pH 7.3 with KOH. Amphotericin-B solution was prepared as 50 mg/ml stock solution in DMSO and diluted to a final working concentration of 0.1 mg/ml in intracellular solution. The external solution was Dulbecco's Phosphate Buffered Saline (DPBS) and contained the following (in mM): CaCl2 0.90, KCl 2.67, KH2PO4 1.47, MgCl·6H2O 0.493, NaCl 136.9, […] 8.06, with a pH of 7.4. […]

T1 sequence (Q12791 whole entry): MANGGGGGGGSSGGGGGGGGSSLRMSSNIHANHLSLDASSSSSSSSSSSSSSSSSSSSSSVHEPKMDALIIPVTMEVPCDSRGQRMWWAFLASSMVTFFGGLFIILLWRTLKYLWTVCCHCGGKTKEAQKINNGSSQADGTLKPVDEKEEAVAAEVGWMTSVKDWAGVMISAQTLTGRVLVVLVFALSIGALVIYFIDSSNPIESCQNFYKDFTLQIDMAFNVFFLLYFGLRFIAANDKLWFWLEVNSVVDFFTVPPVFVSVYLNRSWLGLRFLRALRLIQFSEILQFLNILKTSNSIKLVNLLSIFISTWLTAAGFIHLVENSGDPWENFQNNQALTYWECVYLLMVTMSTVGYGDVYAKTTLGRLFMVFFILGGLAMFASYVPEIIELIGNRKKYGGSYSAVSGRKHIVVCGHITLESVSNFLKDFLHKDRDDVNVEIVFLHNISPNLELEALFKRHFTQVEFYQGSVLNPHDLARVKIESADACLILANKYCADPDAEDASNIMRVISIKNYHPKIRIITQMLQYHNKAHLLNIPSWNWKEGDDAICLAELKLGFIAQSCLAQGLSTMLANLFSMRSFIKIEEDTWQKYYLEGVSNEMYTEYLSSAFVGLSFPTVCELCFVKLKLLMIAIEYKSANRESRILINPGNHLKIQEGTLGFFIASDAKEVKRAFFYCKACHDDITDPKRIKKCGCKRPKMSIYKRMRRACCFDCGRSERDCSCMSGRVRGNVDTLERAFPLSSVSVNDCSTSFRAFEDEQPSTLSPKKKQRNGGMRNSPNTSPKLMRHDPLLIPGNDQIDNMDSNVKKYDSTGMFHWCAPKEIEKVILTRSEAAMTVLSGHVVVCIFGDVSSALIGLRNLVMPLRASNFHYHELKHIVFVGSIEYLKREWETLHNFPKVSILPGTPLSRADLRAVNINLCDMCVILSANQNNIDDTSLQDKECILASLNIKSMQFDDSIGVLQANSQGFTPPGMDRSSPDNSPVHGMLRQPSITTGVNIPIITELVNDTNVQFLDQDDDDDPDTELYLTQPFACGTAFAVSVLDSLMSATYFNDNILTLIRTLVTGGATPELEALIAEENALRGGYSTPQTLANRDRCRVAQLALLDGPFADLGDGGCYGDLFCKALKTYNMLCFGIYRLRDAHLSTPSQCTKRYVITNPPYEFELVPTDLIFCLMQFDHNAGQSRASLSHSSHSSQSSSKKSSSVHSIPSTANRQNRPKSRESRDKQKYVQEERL
T1 sequence (Q16558 whole entry partner): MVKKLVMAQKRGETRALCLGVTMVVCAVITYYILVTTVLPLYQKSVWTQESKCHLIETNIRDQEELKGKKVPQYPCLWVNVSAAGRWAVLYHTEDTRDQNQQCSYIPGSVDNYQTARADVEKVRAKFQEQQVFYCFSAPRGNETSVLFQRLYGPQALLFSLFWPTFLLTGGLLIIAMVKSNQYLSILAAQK

SMILES | effect on BK channel currents [1] | mean increase in human Kv3.3 peak current at 0 mV (human Kv3.3 channels) | EC50 (human Kv3.3 channels)
Cc1ccc(Oc2ncc(N3C(=O)NC(C)(C)C3=O)cn2)c2c1OCC21CC1 [Compound 1, 5,5-dimethyl-3-[2-(7-methylspiro[2H-benzofuran-3,1′-cyclopropane]-4-yl)oxypyrimidin-5-yl]imidazolidine-2,4-dione] | No significant effect | 192% | 6.76 µM
CC[C@@]1(C)NC(=O)N(c2cnc(Oc3ccc(C)c(OC(F)(F)F)c3)nc2)C1=O [Compound 2, (5R)-5-ethyl-5-methyl-3-[2-({4-methyl-3-[(trifluoromethyl)oxy]phenyl}oxy)-5-pyrimidinyl]-2,4-imidazolidinedione] | No significant effect | 113% | 11.7 µM
Cc1ccc(Oc2ccc(-n3c(C)n[nH]c3=O)cn2)c2c1OCC21CC1 [Compound 3, 5-methyl-4-{6-[(7-methylspiro[1-benzofuran-3,1′-cyclopropan]-4-yl)oxy]pyridin-3-yl}-2,4-dihydro-3H-1,2,4-triazol-3-one] | No significant effect | – | 17.4 µM
CC[C@H]1NC(=O)N(c2ccc(Oc3ccc(C)c4c3C3(CC3)CO4)nc2)C1=O [Compound 4, (5R)-5-ethyl-3-[6-(7-methylspiro[2H-benzofuran-3,1′-cyclopropane]-4-yl)oxy-3-pyridyl]imidazolidine-2,4-dione] | – | 365% | –
